Assay results reported in patent US20240208901A1, “Deuterated 3,3'-Diselenodipropionic Acid (DSePA) and Its Use as an Anticancer or Radioprotective Agent” (Secretary, Department of Atomic Energy, priority 2022, published 2024).

Key:
Format in all cases: cell-based, human
[1] = tested on: lung cancer cell lines (A549, H1975 and H3122) versus normal lung cells (WI-38 and WI-26 VA4); assay: Therapeutic index by MTT assay, lung cancer cell lines versus normal lung cells; details: for Therapeutic Index (IC50 in normal cell / IC50 in cancer cells): 48 h post-treatment
Experimental: Therefore, D-DSePA was compared with un-deuterated DSePA for its anticancer activity in A549, H1975 and H3122 cell lines which are representative of NSCLC. For this, above cells were treated with the varying concentrations (0.1-100 μM) of DSePA/D-DSePA for 48 h and the cell viability was determined by MTT assay (FIG. 9A-C). The plot of percent (%) cytotoxicity (100-% viability) versus the concentration of DSePA/D-DSePA was used to estimate the half maximum concentration (IC50) of above compounds to inhibit the proliferation of cells. […] Similarly, the toxicity of DSePA/D-DSePA was studied in non-cancerous lung fibroblast cells, WI-38 and WI-26 VA4 in the concentration range of 0.1 to 1000 μM at 48 h post treatment by MTT assay (FIG. 9D and 9E). […] Employing these values, the therapeutic index (IC50 in normal lung cell/IC50 in lung cancer cell) of DSePA and D-DSePA in different pairs of normal versus cancerous cells (viz., A549/WI-38, A549/WI-26 VA4, H1975/WI-38, H1975/WI-26 VA4, H3122/WI-38 and H3122/WI-26 VA4) was calculated (Table-3). […] The average therapeutic index of DSePA and D-DSePA estimated from above study was 11.05±1.5 and 78.7±29.2 respectively (FIG. 10).
MTT Assay—To evaluate the anti-proliferative effect of D-DScPA and DScPA, Cells (˜5×10^3) suspended in 100 μl of complete culture medium were seeded in each well of 96 well plates. The cells were allowed to attach and grow for 24 h, treated with desired concentrations of D-DSePA/DScPA dissolved in culture medium for 48 h and then processed for MTT assay as described in literature. The percentage (%) cytotoxicity was calculated from the decrease in absorbance at 570 nm of treated groups as compared to that of control group. The % cytotoxicity was plotted as a function of the concentration of D-DSePA and DSePA and from this curve, the concentration of D-DSePA/DScPA causing 50% toxicity (IC50) was estimated. The therapeutic index was calculated by normalizing the IC50 concentration of D-DSePA/DSePA in non-cancerous cells to that in cancerous cells.

H1975 cells = assay: MTT assay, anti-proliferative effect in H1975 cells; details: Homo sapiens, NCI-H1975, 48 h treatment, read-out: IC50 to inhibit cell proliferation
Experimental: (§1) Therefore, D-DSePA was compared with un-deuterated DSePA for its anticancer activity in A549, H1975 and H3122 cell lines which are representative of NSCLC. For this, above cells were treated with the varying concentrations (0.1-100 μM) of DSePA/D-DSePA for 48 h and the cell viability was determined by MTT assay (FIG. 9A-C). The plot of percent (%) cytotoxicity (100-% viability) versus the concentration of DSePA/D-DSePA was used to estimate the half maximum concentration (IC50) of above compounds to inhibit the proliferation of cells. […] Employing these values, the therapeutic index (IC50 in normal lung cell/IC50 in lung cancer cell) of DSePA and D-DSePA in different pairs of normal versus cancerous cells (viz., A549/WI-38, A549/WI-26 VA4, H1975/WI-38, H1975/WI-26 VA4, H3122/WI-38 and H3122/WI-26 VA4) was calculated (Table-3). […]
(§2) MTT Assay—To evaluate the anti-proliferative effect of D-DScPA and DScPA, Cells (˜5×10^3) suspended in 100 μl of complete culture medium were seeded in each well of 96 well plates. […] The percentage (%) cytotoxicity was calculated from the decrease in absorbance at 570 nm of treated groups as compared to that of control group. […] The therapeutic index was calculated by normalizing the IC50 concentration of D-DSePA/DSePA in non-cancerous cells to that in cancerous cells.

WI-26 VA4 cells = assay: MTT assay, toxicity in non-cancerous lung fibroblast WI-26 VA4 cells; details: Homo sapiens, WI26VA4, 48 h post treatment, read-out: IC50 for inhibiting the cell proliferation
Description: (§3) Therefore, D-DSePA was compared with un-deuterated DSePA for its anticancer activity in A549, H1975 and H3122 cell lines which are representative of NSCLC. […] The plot of percent (%) cytotoxicity (100-% viability) versus the concentration of DSePA/D-DSePA was used to estimate the half maximum concentration (IC50) of above compounds to inhibit the proliferation of cells. […] Similarly, the toxicity of DSePA/D-DSePA was studied in non-cancerous lung fibroblast cells, WI-38 and WI-26 VA4 in the concentration range of 0.1 to 1000 μM at 48 h post treatment by MTT assay (FIG. 9D and 9E). […] Employing these values, the therapeutic index (IC50 in normal lung cell/IC50 in lung cancer cell) of DSePA and D-DSePA in different pairs of normal versus cancerous cells (viz., A549/WI-38, A549/WI-26 VA4, H1975/WI-38, H1975/WI-26 VA4, H3122/WI-38 and H3122/WI-26 VA4) was calculated (Table-3). […]
as §2

WI-38 cells = assay: MTT assay, toxicity in non-cancerous lung fibroblast WI-38 cells; details: Homo sapiens, WI-38, WI38 cells, 48 h post treatment, read-out: IC50 for inhibiting the cell proliferation
Description: as §3, §2

A549 cells = assay: MTT assay, anti-proliferative effect in A549 cells; details: Homo sapiens, 48 h treatment, read-out: IC50 to inhibit cell proliferation
Experimental: as §1, §2

For `O=C(O)CC[Se][Se]CCC(=O)O` [DSePA, 3,3′-diselenodipropionic acid], the “Therapeutic Index (IC50 in normal cell / IC50 in cancer cells)” value ([1]; A549/WI-26 VA4, MTT assay) was 9.9 ± 0.5, the “Therapeutic Index (IC50 in normal cell / IC50 in cancer cells)” value ([1]; A549/WI-38, MTT assay) was 11.2 ± 0.6 and the “Therapeutic Index (IC50 in normal cell / IC50 in cancer cells)” value ([1]; H1975/WI-26 VA4, MTT assay) was 14.2 ± 0.7. For the same compound, the “Therapeutic Index (IC50 in normal cell / IC50 in cancer cells)” value ([1]; H1975/WI-38, MTT assay) was 16.1 ± 0.8, the “Therapeutic Index (IC50 in normal cell / IC50 in cancer cells)” value ([1]; H3122/WI-26 VA4, MTT assay) was 7.0 ± 0.4 and the “Therapeutic Index (IC50 in normal cell / IC50 in cancer cells)” value ([1]; H3122/WI-38, MTT assay) was 7.9 ± 0.4. It also gave an average therapeutic index ([1]; mean of six normal/cancer cell pairs, mean±SEM (n=6), MTT assay) of 11.05±1.5, an IC50 (H1975 cells) of 10.6 ± 1.1 µM and an IC50 (WI-26 VA4 cells) of 151 ± 3.3 µM. For the same compound, the IC50 (WI-38 cells) was 171 ± 2.2 µM and the IC50 (A549 cells) was 15.2 ± 1 µM.
